Measurements as given in US20030119716A1, “Methods for screening, treating and diagnosing G-protein coupled receptor-related disorders and compositions thereof” (Wyeth, priority 2001, published 2003).
Entries after “also recorded” stand apart in the source; their conditions may differ. Read-outs that look alike come from different tables or passages of the source.

Tests used:
[1] = test system: c-fos SRE activation in CHO cells stably expressing D2R; assay: SRE-luciferase reporter assay, quinpirole-stimulated c-fos SRE activation in CHO-D2R cells; format: cell-based, Chinese hamster
Erk1/2 phosphorylation = assay: Western blot of phospho-Erk1/2 in CHO-D2R cells; format: cell-based, Chinese hamster; conditions: 25 nM PD098059, 30 minutes before 100 nM quinpirole, 5 min
Protocol: Cell lysates were prepared by incubating cells for 5 minutes on ice with a lysis buffer containing […] NaCl, 50 mM Tris, pH 7.5, 5 mM EDTA, 1% Triton, and a mixture of protease inhibitors. Cells were then scraped off plates and sonicated. The detergent-insoluble material was removed by microcentrifugation for 10 minutes at 4° C. An equal amount of protein was run on SDS gels (Novex, Carlsbad, Calif.) and transferred to nitrocellulose (Bio-Rad, Hercules, Calif.). […] The membrane was washed, incubated for 1 hour in TBS containing appropriate HRP-conjugated secondary antibodies, washed again, and developed with the ECL reagent (Amersham Pharmacia Biotech, Piscataway, N.J.).

[2] = transfection of dominant-negative Rho family mutant or C3 (3 μg), 100 nM quinpirole

## COc1cccc(-c2cc(=O)c3ccccc3o2)c1N [PD098059, reference compound]
[1]; 25 nM PD098059, 100 nM quinpirole
  effect on quinpirole-stimulated SRE activation: only partially suppressed; also recorded: inhibited
[1]; 25 nM PD098059, 100 nM quinpirole, compared to vehicle
  diminution of quinpirole-stimulated SRE activity: about 50%
Erk1/2 phosphorylation
  effect on quinpirole-stimulated Erk1/2 phosphorylation: completely suppressed; also recorded: inhibited

## COC[C@H]1OC(=O)c2coc3c2[C@@]1(C)C1=C(C3=O)[C@@H]2CCC(=O)[C@@]2(C)C[C@H]1OC(C)=O [wortmannin, reference compound]
[1]; 50 nM wortmannin, 100 nM quinpirole
  effect on quinpirole-stimulated SRE activation: no effect

## CdcN17: dominant-negative mutant of Cdc42, Thr17 substituted with Asn
[1]; [2]
  effect on quinpirole-stimulated SRE activation: suppressed

## RhoN19: dominant-negative mutant of RhoA, Thr19 substituted with Asn
[1]; [2]
  effect on quinpirole-stimulated SRE activation: suppressed

## pertussis toxin [reference compound]
[1]
  effect on quinpirole-stimulated SRE activation: completely abolished; also recorded: abrogated
